Consider two molecules from publication PMC7519584 (Clinical cancer research : an official journal of the …, 2015).

Series [1] deals with HCC. Conditions: sorafenib monotherapy, phase III trial in HCC (SHARP); cited from earlier work.
Series [2] is described as follows: clinical. Conditions: human, in vivo.
For series [3] the following is noted: human, in vivo.
For series [4] the following is noted: ref NCT00610194; cited from earlier work.
The nature of series [5]: Plasma pharmacokinetics of refametinib, metabolite M17 and sorafenib. The note with it: human, in vivo, Geometric mean maximum drug concentration (Cmax), multiple dose, day 1 of course 2, at the MTD, non-HCC patients.

Take `CNC(=O)c1cc(Oc2ccc(NC(=O)Nc3ccc(Cl)c(C(F)(F)F)c3)cc2)ccn1` [sorafenib]: in series [1], the “Patients who achieved stable disease” value is recorded as 71% and the Response rate is given as 2%. The “Sorafenib dose at the MTD of the combination” value (in combination with refametinib 50 mg twice daily, 28-day courses) was 400 mg twice daily.

`COc1cc(F)c(F)c(Nc2ccc(I)cc2F)c1NS(=O)(=O)C1(C[C@H](O)CO)CC1` [refametinib] gave a half-life in series [2] (Plasma half-life (geometric mean)) of around 16 h. For the same molecule, in series [2] (po), the time to peak (Tmax) is around 3 h. In addition, the “Multiple-dose AUC0–12 higher than single-dose AUC0–12 by an average of” value in series [3] is recorded as “approximately 40%”. Besides, in series [3] (28 days), the “Accumulation after multiple dosing” value was “less than 2 fold”. In addition, the “MTD of refametinib monotherapy” value in series [4] was 50 mg twice daily. For the same molecule, under “human, in vivo”, the “Patients with serious AEs considered possibly related to refametinib” value is reported as 10 patients. The “Maximum tolerated dose (MTD) of refametinib” value (in combination with sorafenib 400 mg twice daily, 28-day courses) turned out to be 50 mg twice daily. The Cmax in series [5] is 674 ng/mL.

What is called half-life is the time in which the quantity being followed falls by half. Lower therefore signals rapid decline. Broadly, the Tmax is the time from dosing to the highest level. The Cmax is the highest concentration seen after dosing.
